Data set [1] in a line: crystallinity of the complexes. The conditions noted are these: solid complex; i.e., substantially free of amorphous material. Format: physicochemical.
Data set [2] in a line: hygroscopic stability of the complexes. Particulars: solid complex; weight changes of the active ingredient during manufacture of capsules or tablets. Format: physicochemical.

On to `COCC(=O)NC/C=C/c1ccc2ncnc(Nc3ccc(Oc4ccc(C)nc4)c(C)c3)c2c1.O=C(O)CC(=O)O.O=C(O)CC(=O)O` [di-malonate, Di-malonate Complex of E-2-Methoxy-N-(3-{4-[3-methyl-4-(6-methyl-pyridin-3-yloxy)-phenylamino]-quinazolin-6-yl}-allyl)-acetamide], for which the crystallinity result in data set [1] is given as “high crystallinity”. Besides, the hygroscopic stability result in data set [2] is listed as “substantially hygroscopically stable”.
In the case of `COCC(=O)NC/C=C/c1ccc2ncnc(Nc3ccc(Oc4ccc(C)nc4)c(C)c3)c2c1.COCC(=O)NC/C=C/c1ccc2ncnc(Nc3ccc(Oc4ccc(C)nc4)c(C)c3)c2c1.O=C(O)CCC(=O)O.O=C(O)CCC(=O)O.O=C(O)CCC(=O)O` [sesquisuccinate, Sesquisuccinate Complex of E-2-Methoxy-N-(3-{4-[3-methyl-4-(6-methyl-pyridin-3-yloxy)-phenylamino]-quinazolin-6-yl}-allyl)-acetamide], the crystallinity entry in data set [1] was “high crystallinity”. The hygroscopic stability entry in data set [2] was “substantially hygroscopically stable”.

(Values after patent US6844349B2, “Salt forms of E-2-methoxy-N-(3-{4-[3 methyl-4-(6-methyl-pyridin-3-yloxy)-phenylamino]-quinazolin-6-yl}-allyl)-acetamide and method of production” (Pfizer Inc, priority 2001, dated 2005).)
